{"source": "patent US9931309B2", "about": "“Curcumin-sophorolipid complex” (COUNCIL OF SCIENTIFIC & INDUSTRIAL RESEARCH, priority 2014, dated 2018)", "key": {"[1]": {"assay": "Appearance / solubilization of aqueous test solutions", "format": "physicochemical", "conditions": "100 μg/ml", "method": "Optical properties of the present complex SL(A)+ curcumin complex were determined by UV-Vis and Photoluminescence studies analysis. Accordingly, the optical properties of SL(A), curcumin and the present sophorolipid-curcumin (SL(A)+Cur) self-assembly were compared. UV-Vis absorption spectra were recorded on Varian CARY 100 Bio UV-Vis spectrophotometer respectively, with 10 mm quartz cell at 25±0.1° C. For recording the spectra, 3 ml solutions of SL(A), Cur and SL(A)+Cur solution were prepared with having a concentration of 100 μg/ml. The solutions of this were mixed gently and subsequently the spectra were recorded.\nVisible differences in the appearance of each of the test solutions were observed."}, "MCF-7 cells": {"system": "MCF-7 cells", "assay": "cells", "format": "cell-based", "experimental": "(§1) All the experiments were performed in triplicates and repeated twice and the data has been presented as mean±SD. Statistical analysis was conducted with the Graph Pad 4 prism program using one-way ANOVA. The p values used for comparisons were <0.05. IC50 values were calculated using Kyplot software.\n(§2) In order to determine whether acidic sophorolipid enhanced the bioavailability of Curcumin in cancerous cell lines, the cytotoxic potential of the aqueous SL(A)+Cur complex was tested in breast cancer lines MCF-7 and MDA-MB-231 and was compared with that of aqueous SL(A), Cur in water, and Cur dissolved in ethanol, the latter was used as a positive control.\n(§3) Cyto-toxicity analysis of the present curcumin-SL(A) complex was performed using mammalian breast cancer cell lines by the MTT dye uptake assay. […] MTT solution (5 mg/ml) was added to each well and the cells were cultured for another 4 h at 37° C. in a 5% CO2 incubator. The formazan crystals formed were dissolved by addition of 90 μL of SDS-DMF (20% SDS in 50% DMF). After 15 min, the concentration of colored formazan derivative was determined by measuring optical density (OD) using the ELISA microplate reader (Biorad, Hercules, Calif.) at 570 nm (OD: 570-630 nm). The percentage viability was calculated as: % Viability=[OD of treated cells/OD of control cells]×100 Percentage Viability Observed Post Treatment"}, "Zeta potential": {"assay": "Zeta potential", "format": "physicochemical", "conditions": "dispersions without any dilution", "experimental": "The surface charges of the SL(A), Cur and SL(A)+Cur were determined using a zeta potential analyzer (Brookhaven Instruments Corporation, NY). The average zeta potentials of the nano self-assembly dispersions were determined without any dilution."}, "MDA-MB-231 cells": {"system": "MDA-MB-231 cells", "assay": "MTT cytotoxicity assay in MDA-MB-231 cells", "format": "cell-based", "experimental": "as §1, §2, §3"}, "[2]": {"assay": "Dynamic Light Scattering (DLS) measurements, particle size", "format": "physicochemical", "conditions": "10 mg dissolved in 10 ml H2O", "experimental": "The Dynamic Light Scattering (DLS) measurements were carried using the out on Brookhaven Instrument model 90 Plus Particle Size Analyzer. The solutions, i.e. Cur, SL(A) and the present SL(A)+Curcumin nano-assembly were analyzed at a constant shutter opening diameter in the DLS apparatus. […] This was also confirmed with the results obtained by SEM and TEM analysis depicted in FIG. 4. Field emission scanning electron microscopy images acquired on FEI QUANTA 200 microscope, equipped with a tungsten filament gun, operating at WD 10.6 mm and 20 kV. A 10 μL aliquot of all three sample solution were placed on silicon wafer and fixed on copper stubs with help of carbon tape. The samples were dried at room temperature for overnight and images were recorded without gold coating."}}, "data": [{"smiles": "COc1cc(/C=C/C(=O)CC(=O)/C=C/c2ccc(O)c(OC)c2)ccc1O", "note": "[Cur, diferuloylmethane]", "values": [{"measurement": "appearance of the solution", "setting": "[1]", "result": "turbid"}, {"measurement": "viability at 5 µg/mL", "setting": "MCF-7 cells; Homo sapiens, MCF7", "result": 100, "unit": "%"}, {"measurement": "viability at 10 µg/mL", "setting": "MCF-7 cells; Homo sapiens, MCF7", "result": 100, "unit": "%"}, {"measurement": "viability at 20 µg/mL", "setting": "MCF-7 cells; Homo sapiens, MCF7", "result": 100, "unit": "%"}, {"measurement": "viability at 40 µg/mL", "setting": "MCF-7 cells; Homo sapiens, MCF7", "result": 95, "unit": "%"}, {"measurement": "viability at 80 µg/mL", "setting": "MCF-7 cells; Homo sapiens, MCF7", "result": 93, "unit": "%"}, {"measurement": "viability at 120 µg/mL", "setting": "MCF-7 cells; Homo sapiens, MCF7", "result": 91, "unit": "%"}, {"measurement": "activity against the cancerous cell lines", "setting": "MCF-7 cells; MCF-7", "result": "no activity"}, {"measurement": "concentration from which anticancer activity (growth inhibition) commences", "setting": "MCF-7 cells; MCF-7, FIG. 7(a), for the complex as concentration of Cur", "result": 40, "unit": "µg/mL"}, {"measurement": "relative toxicity at low to moderate dose", "setting": "MCF-7 cells; MCF-7, low to moderate dose range (5-20 μg/ml)", "result": "more toxic"}, {"measurement": "zeta potential", "setting": "Zeta potential", "result": "−15.14", "unit": "mV"}, {"measurement": "concentration at which cytotoxicity is exhibited", "setting": "MDA-MB-231 cells", "result": 20000, "unit": "ng/mL"}, {"measurement": "activity against the cancerous cell lines", "setting": "MDA-MB-231 cells; MDA-MB-231", "result": "no activity"}, {"measurement": "% viability", "setting": "MDA-MB-231 cells; MDAMB 231, 5 μg/ml", "result": 100, "unit": "%"}, {"measurement": "% viability", "setting": "MDA-MB-231 cells; MDAMB 231, 10 μg/ml", "result": 100, "unit": "%"}, {"measurement": "% viability", "setting": "MDA-MB-231 cells; MDAMB 231, 20 μg/ml", "result": 100, "unit": "%"}, {"measurement": "% viability", "setting": "MDA-MB-231 cells; MDAMB 231, 40 μg/ml", "result": 95, "unit": "%"}, {"measurement": "% viability", "setting": "MDA-MB-231 cells; MDAMB 231, 80 μg/ml", "result": 93, "unit": "%"}, {"measurement": "% viability", "setting": "MDA-MB-231 cells; MDAMB 231, 120 μg/ml", "result": 91, "unit": "%"}, {"measurement": "hydrodynamic radius", "setting": "[2]", "result": "about 818 nm"}, {"measurement": "hydrodynamic radius", "setting": "[2]; listed as Curcumin", "result": 818.6, "unit": "nm"}]}]}
